Structures are written as SMILES.

In assay [1] the target is Carbonic anhydrase 9 (Homo sapiens, UniProt Q16790). The experiment in a line: Inhibition of human carbonic anhydrase 9.
The species named for assay [2] is Homo sapiens. The experiment in a line: Selectivity ratio of IC50 for human carbonic anhydrase 1 to IC50 for human carbonic anhydrase 9.
Assay [3] relates to Rattus norvegicus. Put plainly: In vivo inhibition of steroid sulfatase in Wistar rat assessed as enzyme recovery at 10 mg/kg, sc single dose treated for 3 days measured after 1 week relative to control. Format: functional. On the set-up: scale not given: the % may be the effect or the level left.
Assay [4] concerns Rattus norvegicus. Put plainly: In vivo inhibition of steroid sulfatase in Wistar rat assessed as enzyme recovery at 10 mg/kg, sc single dose treated for 10 days measured after 15 days relative to control. Format: functional. On the set-up: scale not given: the % may be the effect or the level left.
Assay [5] deals with T1, Carbonic anhydrase 2 (Homo sapiens, UniProt P00918). Put plainly: Inhibition of human carbonic anhydrase 2.
In assay [6] the target is T2, Steryl-sulfatase (Homo sapiens, UniProt P08842).
T2 sequence (P08842 whole entry): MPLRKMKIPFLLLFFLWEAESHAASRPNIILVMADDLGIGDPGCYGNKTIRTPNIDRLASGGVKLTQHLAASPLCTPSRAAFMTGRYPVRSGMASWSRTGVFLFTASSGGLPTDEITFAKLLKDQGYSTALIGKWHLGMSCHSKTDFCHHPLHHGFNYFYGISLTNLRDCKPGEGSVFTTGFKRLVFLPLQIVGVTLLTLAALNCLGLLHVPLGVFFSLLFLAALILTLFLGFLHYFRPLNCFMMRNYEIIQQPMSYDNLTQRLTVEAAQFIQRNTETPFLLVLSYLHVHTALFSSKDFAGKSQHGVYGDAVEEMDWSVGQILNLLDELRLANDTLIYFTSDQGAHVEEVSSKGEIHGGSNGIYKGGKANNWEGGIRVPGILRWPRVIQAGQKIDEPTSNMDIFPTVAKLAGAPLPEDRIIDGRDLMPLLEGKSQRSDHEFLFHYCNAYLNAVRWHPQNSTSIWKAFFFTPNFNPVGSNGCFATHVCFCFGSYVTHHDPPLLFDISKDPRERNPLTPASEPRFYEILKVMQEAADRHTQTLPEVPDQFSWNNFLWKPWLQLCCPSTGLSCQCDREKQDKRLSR
The experiment in a line: Inhibition of human placental steroid sulfatase.

In assay [7] the test system is MCF7. The experiment in a line: Antiproliferative activity against human MCF7 cells at 1 uM relative to control. The format is functional.
In assay [8] the target is T2, Steryl-sulfatase. The experiment in a line: Inhibition of steroid sulfatase (unknown origin) expressed in CHO cells. Format: cell-based.
Assay [9] has as its target T2, Steryl-sulfatase. The experiment in a line: Inhibition of steroid sulfatase (unknown origin) expressed in human MCF7 cells. The format is cell-based.
Assay [10] relates to Rattus norvegicus. The experiment in a line: In vivo inhibition of steroid sulfatase in Wistar rat at 10 mg/kg, po after 3 hrs relative to control. The format is functional.
The test system of assay [11] is Rattus norvegicus. Put plainly: In vivo inhibition of aromatase in Wistar rat at 10 mg/kg, po after 3 hrs relative to control. The format is functional.
The species named for assay [12] is Rattus norvegicus. Put plainly: animal or person. The settings on record: Wistar, 3 h.
Assay [13] has as its target T2, Steryl-sulfatase. The experiment in a line: Inhibition of steroid sulfatase in human MCF7 cells. The format is cell-based.
Assay [14] has as its target T2, Steryl-sulfatase. The experiment in a line: Inhibition of steroid sulfatase derived form human placental microsomes. On the set-up: species or system Placenta.
The target in assay [15] is T2, Steryl-sulfatase. Put plainly: Inhibition of human placental steroid sulfatase expressed in HEK293 cells using [3H] E1S as substrate after 2 hrs by liquid scintillation counting method. Format: cell-based.
Assay [16] has as its system MCF7. The experiment in a line: Antiproliferative activity against human MCF7 cells. Format: functional, cell-based.
The test system of assay [17] is MDA-MB-231. Put plainly: Antiproliferative activity against human MDA-MB-231 cells. Format: functional, cell-based.
Assay [18] deals with Carbonic anhydrase 4 (Homo sapiens, UniProt P22748). The experiment in a line: Inhibition of human carbonic anhydrase 4.
Sequence of Carbonic anhydrase 4 (P22748 whole entry): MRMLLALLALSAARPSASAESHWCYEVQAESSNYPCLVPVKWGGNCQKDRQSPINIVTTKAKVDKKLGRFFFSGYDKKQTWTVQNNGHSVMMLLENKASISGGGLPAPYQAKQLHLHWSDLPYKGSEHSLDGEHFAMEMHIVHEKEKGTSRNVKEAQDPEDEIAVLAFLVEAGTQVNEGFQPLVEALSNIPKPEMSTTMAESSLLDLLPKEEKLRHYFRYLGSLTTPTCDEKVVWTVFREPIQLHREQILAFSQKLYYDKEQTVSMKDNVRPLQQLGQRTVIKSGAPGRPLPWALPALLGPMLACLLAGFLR
The test system of assay [19] is MCF7. The experiment in a line: Antitumor activity against human MCF7 cells xenografted in MF-1 nude mouse assessed as tumor growth inhibition at 5 mg/kg, po treated for 4 weeks in presence of 2-deoxy-D-glucose by immunohistochemistry relative to control. The format is functional. To be noted: 672 h, read-out: TGI. (A xenograft is tissue or cells of one species grown in another, often human tumour cells in immunodeficient mice.)

In assay [20] the test system is MCF7. Put plainly: Antiproliferative activity against estrogen receptor-positive human MCF7 cells. Format: functional, cell-based.
For assay [21], the system named is MDA-MB-231. Put plainly: Antiproliferative activity against estrogen receptor-negative human MDA-MB-231 cells. The format is functional, cell-based.
In assay [22] the target is T2, Steryl-sulfatase. The experiment in a line: Inhibition of steroid sulfatase (unknown origin).
Assay [23] addresses Acetylcholinesterase (Electrophorus electricus, UniProt O42275). The experiment in a line: Inhibition of electric ee AChE using acetylthiocholine iodide as substrate preincubated for 15 mins followed by substrate addition by Ellman's method. On the technique in general: Ellman's reagent forms a yellow product with free thiols.
Assay [24] has as its target Carbonic anhydrase 1 (Homo sapiens, UniProt P00915). The experiment in a line: Inhibition of human carbonic anhydrase 1 using p-nitrophenylacetate as substrate after 3 mins.
Assay [25] addresses T1, Carbonic anhydrase 2. Put plainly: Inhibition of human carbonic anhydrase 2 using p-nitrophenylacetate as substrate after 3 mins.
Assay [26] addresses Cholinesterase (Equus caballus, UniProt P81908). Put plainly: Inhibition of equine BChE using butyrylthiocholine iodide as substrate preincubated for 15 mins followed by substrate addition by Ellman's method.
The subject of assay [27] is Rattus norvegicus. Put plainly: In vivo inhibition of steroid sulfatase in Wistar rat at 10 mg/kg, po relative to control. The format is functional.

Sequence of Carbonic anhydrase 1 (P00915 whole entry): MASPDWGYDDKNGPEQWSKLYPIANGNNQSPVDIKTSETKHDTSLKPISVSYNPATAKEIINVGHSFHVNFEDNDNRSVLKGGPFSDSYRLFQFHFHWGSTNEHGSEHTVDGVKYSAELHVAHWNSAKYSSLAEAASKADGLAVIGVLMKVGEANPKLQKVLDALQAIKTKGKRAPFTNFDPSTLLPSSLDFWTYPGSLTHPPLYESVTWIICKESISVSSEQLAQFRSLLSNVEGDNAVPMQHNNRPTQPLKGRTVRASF
Sequence of Cholinesterase (P81908 whole entry): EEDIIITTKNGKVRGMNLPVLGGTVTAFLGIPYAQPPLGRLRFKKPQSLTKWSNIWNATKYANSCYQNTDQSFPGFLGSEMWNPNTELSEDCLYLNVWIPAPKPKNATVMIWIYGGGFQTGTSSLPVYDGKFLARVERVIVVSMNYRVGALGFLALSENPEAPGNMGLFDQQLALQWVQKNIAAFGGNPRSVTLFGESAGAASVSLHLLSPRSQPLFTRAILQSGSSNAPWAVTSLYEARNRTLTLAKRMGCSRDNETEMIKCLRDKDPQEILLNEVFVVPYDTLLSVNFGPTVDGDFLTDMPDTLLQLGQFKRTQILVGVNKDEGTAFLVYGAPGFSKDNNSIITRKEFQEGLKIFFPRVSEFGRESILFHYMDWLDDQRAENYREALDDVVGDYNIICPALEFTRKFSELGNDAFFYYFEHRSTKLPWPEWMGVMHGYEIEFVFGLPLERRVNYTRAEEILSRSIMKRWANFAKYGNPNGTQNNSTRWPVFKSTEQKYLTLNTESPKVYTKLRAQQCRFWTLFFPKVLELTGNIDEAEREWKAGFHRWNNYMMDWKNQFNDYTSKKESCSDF
Sequence of Acetylcholinesterase (O42275 whole entry): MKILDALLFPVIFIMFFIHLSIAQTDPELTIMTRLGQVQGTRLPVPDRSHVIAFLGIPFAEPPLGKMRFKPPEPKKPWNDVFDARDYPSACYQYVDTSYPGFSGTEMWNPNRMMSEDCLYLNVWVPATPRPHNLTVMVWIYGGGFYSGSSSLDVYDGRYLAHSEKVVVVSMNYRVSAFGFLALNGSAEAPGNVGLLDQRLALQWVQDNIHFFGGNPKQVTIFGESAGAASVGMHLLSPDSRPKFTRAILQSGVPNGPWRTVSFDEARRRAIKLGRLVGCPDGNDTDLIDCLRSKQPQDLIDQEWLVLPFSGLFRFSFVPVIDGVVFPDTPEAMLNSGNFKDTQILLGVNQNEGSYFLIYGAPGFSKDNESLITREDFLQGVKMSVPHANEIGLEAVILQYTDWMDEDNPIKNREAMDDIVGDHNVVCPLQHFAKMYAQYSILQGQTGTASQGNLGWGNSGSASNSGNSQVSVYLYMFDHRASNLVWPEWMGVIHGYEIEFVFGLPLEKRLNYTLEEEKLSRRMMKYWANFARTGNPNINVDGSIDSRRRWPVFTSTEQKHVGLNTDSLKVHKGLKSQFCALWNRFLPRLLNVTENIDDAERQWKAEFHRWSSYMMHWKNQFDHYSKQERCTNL

In [1], `NS(=O)(=O)Oc1ccc(/C=C/C(=O)C[C@@H]2O[C@H](CO)[C@@H](O)[C@H](O)[C@H]2O)cc1` returned an IC50 of 101 nM. In addition, in assay [2], the Ratio IC50 was 3.38. For `C[C@]12CC[C@@H]3c4ccc(OS(N)(=O)=O)cc4CC[C@H]3[C@@H]1CCC2=O` [EMATE], the Activity in [3] is 10 - 15%; in [4], 30%. Take `Cc1ccc(/C=C2/SC(Nc3ccc(OS(N)(=O)=O)cc3)=NC2=O)cc1`: the Ki in [1] lay in the range of 17.6 to 73.3 nM; in [5] it was 28.7 to 84.3 nM. In turn, `NS(=O)(=O)Oc1ccc2ccc(=O)oc2c1` had a 50% inhibitory concentration (IC50) in assay [6] of 2130 nM. As for `NS(=O)(=O)Oc1ccc(NC2=NC(=O)/C(=C\c3ccc(C(F)(F)F)cc3)S2)cc1`, the Ki was in the range of 17.6 to 73.3 nM in [1] and 28.7 to 84.3 nM in assay [5]. On to `COc1cc2c(cc1OS(N)(=O)=O)CC[C@@H]1[C@@H]2CC[C@]2(C)C(=O)CC[C@@H]12`, for which the Activity in assay [7] was found to be 52%. Turning to `NS(=O)(=O)Oc1ccc(NC2=NC(=O)/C(=C\c3ccc(Cl)cc3)S2)cc1`, the inhibition constant Ki in assay [1] fell in the range of 17.6 to 73.3 nM; in assay [5] it was 28.7 to 84.3 nM. For `NS(=O)(=O)Oc1ccc2nc(C=C3C4CC5CC(C4)CC3C5)oc2c1`, the concentration for half-maximal inhibition (IC50) in assay [8] and in assay [9] was 0.15 to 31.8 nM in each case.

On to `NS(=O)(=O)Oc1ccc(CCNC(=O)C(F)(F)C(F)(F)C(F)(F)C(F)(F)C(F)(F)C(F)(F)C(F)(F)C(F)(F)C(F)(F)C(F)(F)F)cc1`, for which 2180 nM corresponded to half-maximal inhibition in assay [6] (IC50). On to `COc1ccc(/C=C2/SC(Nc3ccc(OS(N)(=O)=O)cc3)=NC2=O)cc1`, for which the values for the inhibitory constant (Ki) in [1] and in assay [5] were 17.6 to 73.3 nM and 28.7 to 84.3 nM, respectively.

`N#Cc1ccc(N(Cc2ccc3c(Br)c(OS(N)(=O)=O)ccc3c2)n2cnnc2)cc1`: the inhibition in vivo at 10 mg/kg in assay [10] and in assay [11] was 93% each time. In addition, it took 205 nM to reach half-maximal inhibition in [12] (IC50).

Consider `Cc1c(Cc2ccccc2)c(=O)oc2cc(OS(N)(=O)=O)ccc12`, for which the IC50 in assay [13] amounted to 1 nM; in assay [14], 8 nM. For `CCCCCCC(O)(CCCCc1ccc(OS(N)(=O)=O)cc1)c1ccc(C(C)(C)C)cc1` (centres undefined), half-maximal inhibition in assay [15] (IC50) was put at 0.4 nM. Consider `NS(=O)(=O)Oc1ccc(NC2=NC(=O)/C(=C\c3cccc4ccccc34)S2)cc1`, for which the Ki in [1] lay in the range of 17.6 to 73.3 nM; in assay [5], 28.7 to 84.3 nM. Take `CCc1cc2c(cc1OS(N)(=O)=O)CC[C@@H]1[C@@H]2CC[C@]2(C)[C@@H](OS(N)(=O)=O)CC[C@@H]12`: the figures for the IC50 in assay [16] and in assay [17] were 70 nM and 80 nM, respectively. In the case of `NS(=O)(=O)Oc1ccc(NC2=NC(=O)/C(=C\c3ccc(F)cc3)S2)cc1`, the inhibition constant (Ki) in assay [1] was 17.6 to 73.3 nM; in assay [5], 28.7 to 84.3 nM. Taken in the same sequence, the figures for `NS(=O)(=O)Oc1ccc(NC2=NC(=O)/C(=C\c3ccc([N+](=O)[O-])cc3)S2)cc1` were 17.6 to 73.3 nM and 28.7 to 84.3 nM. In the case of `COc1cc(/C=C2/SC(Nc3ccc(OS(N)(=O)=O)cc3)=NC2=O)cc(OC)c1OC`, the inhibition constant (Ki) in assay [1] was 17.6 to 73.3 nM; in [5], 28.7 to 84.3 nM; in assay [18], 42.3 nM. `COc1cc2c(cc1OS(N)(=O)=O)CC[C@@H]1[C@@H]2CC[C@]2(C)[C@@H](OS(N)(=O)=O)CC[C@@H]12`: the inhibition in vivo at 5 mg/kg in assay [19] was found to be 76%. The IC50 in assay [20] stood at 250 nM; in [21], 290 nM. On to `NS(=O)(=O)Oc1ccc2c3c(c(=O)oc2c1)CCCCCC3`, for which the concentration for half-maximal inhibition (IC50) in assay [22] is 1 nM.

For the compound `CC(C)[C@@H]1CC[C@@H](C)C[C@H]1OS(=O)(=O)NC(c1ccccc1)c1ccccc1`, the IC50 in assay [23] is 206 nM; in [24] it was 44 nM; in assay [25], 16 nM; in [26], 246 nM. In turn, `Cc1cc(=O)oc2cc(OS(N)(=O)=O)ccc12` gave an IC50 in assay [22] of 30 nM. On to `NS(=O)(=O)Oc1ccc(NC2=NC(=O)/C(=C\c3ccccc3)S2)cc1`, for which the Ki in [1] is 17.6 to 73.3 nM; in [5] it was 28.7 to 84.3 nM; in assay [18] it was 76.1 nM. In assay [27], `N#Cc1ccc(N(Cc2ccc(OS(N)(=O)=O)cc2)n2cnnc2)cc1` returned an inhibition in vivo at 10 mg/kg of over 98%. Turning to `CCCCCCc1c(C)c2ccc(OS(N)(=O)=O)cc2oc1=O`, the IC50 is 0.68 nM in assay [13] and 32 nM in assay [14].

The IC50 is the concentration needed to halve the response being measured. Usually Ki stands for the equilibrium dissociation constant of an inhibitor or competing ligand from its target.

Source of the values: ChEMBL document CHEMBL4396908, “Sulfamates in drug design and discovery: Pre-clinical and clinical investigations” (Eur J Med Chem, 2019).
